# System: zinc metalloproteases
# Assay: Azocoll assay with selective protease inhibitor
# Format: biochemical
# Details: 1 mM inhibitor, azocoll assay pH 7.6
# Protocol: Azocoll assays were carried out as described by Fisher and Werb (1995). For assays on medium from cells infected with the viruses expressing the mammalian proteases, all medium samples were concentrated 10-fold except for medium from AcMLF9.STR1-infected cells. Samples for analysis of S. peregrina cathepsin L expression were not concentrated. Aliquots of infected cell medium (2.5 μl for AcMLF9. ScathL-infected cells, 40 μl for all other samples) were mixed with 200 μl of 2 mg/ml azocoll suspended either in 50 mM Tris, pH 7.6-10 mM CaCl2-200 mM NaCl-50 μM ZnSO4 (for detection of stromelysin-1 and gelatinase A activity) or in 0.1 M sodium acetate, pH 5.0 (for detection of cathepsin L activity) in a final volume of 240 μl. A control reaction with sufficient dispase (Boehringer Mannheim, Indianapolis, Ind.) to digest all azocoll in the reaction tube was used as a standard. […] Absorbance of the supernatant was measured at 520 nm for each reaction, and mg azocoll digested/ml medium was calculated based on the absorbance of the dispase control reaction (Fisher, S. J., and Werb, Z. 1995. The catabolism of extracellular matrix components. In “Extracellular Matrix: A Practical Approach” (M. A. Haralson, and J. R. Hassell, Eds.), pp. 261-287. Oxford University Press, New York).
compound,measurement,value
"c1cnc2c(c1)ccc1cccnc12 [1,10-phenanthroline]",Inhibition of proteolytic activity in supernatants of stromelysin- and gelatinase-expressing virus infections,inhibited
